Holding throughout (assay type): functional
Test [1] has as its system Pseudomonas aeruginosa. Put plainly: Synergistic antibacterial activity against Pseudomonas aeruginosa assessed as fractional inhibitory concentration index in presence of doxycycline after 18 hrs by checkerboard assay.
For test [2], the system named is Pseudomonas aeruginosa. Put plainly: Potentiation of doxycycline-induced antibacterial activity against Pseudomonas aeruginosa PAO1 assessed as doxycycline MIC at 1.22 ug/ml by broth micro-dilution method (reference value: 32 ug/ml).
Test [3] relates to Escherichia coli. Briefly: Potentiation of erythromycin-induced antibacterial activity against Escherichia coli W3110 assessed as erythromycin MIC at 8 ug/ml after 20 hrs by liquid microdilution method (reference value: 64 ug/ml). Conditions: K-12 substr. W3110, 20 h. (Broth dilution looks for growth in wells or tubes with falling amounts of substance.)
Test [4] concerns Escherichia coli. Put plainly: Potentiation of novobiocin-induced antibacterial activity against Escherichia coli W3110 assessed as novobiocin MIC at 8 ug/ml after 20 hrs by liquid microdilution method (reference value: 128 ug/ml). Conditions: K-12 substr. W3110, 20 h.
Test [5] deals with Escherichia coli. Put plainly: Potentiation of novobiocin-induced antibacterial activity against Escherichia coli W3110 assessed as novobiocin MIC at 64 ug/ml after 20 hrs by liquid microdilution method (reference value: 128 ug/ml). The settings on record: K-12 substr. W3110, 20 h.
The test system of test [6] is Escherichia coli. Briefly: Potentiation of erythromycin-induced antibacterial activity against Escherichia coli W3110 assessed as erythromycin MIC at 64 ug/ml after 20 hrs by liquid microdilution method (reference value: 64 ug/ml). Conditions: K-12 substr. W3110, 20 h.
In test [7] the test system is Pseudomonas aeruginosa. Briefly: Potentiation of doxycycline-induced antibacterial activity against Pseudomonas aeruginosa PAO1 assessed as doxycycline MIC at 2.5 uM after 18 hrs (reference value: 20 ug/ml). The settings on record: PAO1, 18 h.
For another test, the system named is Klebsiella pneumoniae. Put plainly: Potentiation of doxycycline-induced antibacterial activity against Klebsiella pneumoniae KPC2 assessed as doxycycline MIC at 2.5 uM after 18 hrs (reference value: 10 ug/ml). The settings on record: KPC2, 18 h.
In test [8] the test system is Klebsiella aerogenes. Briefly: Potentiation of doxycycline-induced antibacterial activity against Enterobacter aerogenes EA289 assessed as doxycycline MIC at 2.5 uM after 18 hrs (reference value: 40 ug/ml). The settings on record: EA289, 18 h.
The subject of test [9] is Klebsiella aerogenes. Put plainly: Potentiation of doxycycline-induced antibacterial activity against Enterobacter aerogenes EA289 assessed as doxycycline MIC at 5 uM after 18 hrs (reference value: 40 ug/ml). Conditions: EA289, 18 h.
The test system of test [10] is Pseudomonas aeruginosa. Put plainly: Potentiation of doxycycline-induced antibacterial activity against Pseudomonas aeruginosa PAO1 assessed as doxycycline MIC at 1.25 uM after 18 hrs (reference value: 20 ug/ml). Conditions: PAO1, 18 h.
The test system of test [11] is Pseudomonas aeruginosa. Briefly: Potentiation of tetracycline-induced antibacterial activity against Pseudomonas aeruginosa PAO1 assessed as tetracycline MIC at 3.2 ug/ml after 18 hrs (reference value: 16 ug/ml). The settings on record: PAO1, 18 h.
Test [12] concerns Klebsiella aerogenes. Put plainly: Potentiation of ciprofloxacin-induced antibacterial activity against Enterobacter aerogenes ATCC 13048 assessed as ciprofloxacin MIC at 1.6 ug/ml after 18 hrs (reference value: 0.5 ug/ml). Conditions: ATCC 13048, 18 h.
The test system of test [13] is Klebsiella aerogenes. Put plainly: Potentiation of tetracycline-induced antibacterial activity against Enterobacter aerogenes ATCC 13048 assessed as tetracycline MIC at 1.6 ug/ml after 18 hrs (reference value: 2 ug/ml). The settings on record: ATCC 13048, 18 h.
The subject of test [14] is Escherichia coli. Put plainly: Potentiation of chloramphenicol-induced antibacterial activity against Escherichia coli AG100 assessed as chloramphenicol MIC at 0.4 ug/ml after 18 hrs (reference value: 8 ug/ml). Conditions: AG100, 18 h.
Test [15] concerns Klebsiella aerogenes. Put plainly: Potentiation of cefepime-induced antibacterial activity against Enterobacter aerogenes ATCC 13048 assessed as cefepime MIC at 1.6 ug/ml after 18 hrs (reference value: 0.25 ug/ml). Conditions: ATCC 13048, 18 h.
In test [16] the test system is Escherichia coli. Briefly: Potentiation of tetracycline-induced antibacterial activity against Escherichia coli AG100 assessed as tetracycline MIC at 0.4 ug/ml after 18 hrs (reference value: 2 ug/ml). Conditions: AG100, 18 h.
Test [17] has as its system Escherichia coli. Put plainly: Potentiation of cefepime-induced antibacterial activity against Escherichia coli AG100 assessed as cefepime MIC at 0.4 ug/ml after 18 hrs (reference value: 0.5 ug/ml). Conditions: AG100, 18 h.
Test [18] relates to Klebsiella aerogenes. Put plainly: Potentiation of chloramphenicol-induced antibacterial activity against Enterobacter aerogenes ATCC 13048 assessed as chloramphenicol MIC at 1.6 ug/ml after 18 hrs (reference value: 4 ug/ml). Conditions: ATCC 13048, 18 h.
Test [19] relates to Pseudomonas aeruginosa. Put plainly: Potentiation of chloramphenicol-induced antibacterial activity against Pseudomonas aeruginosa PAO1 assessed as chloramphenicol MIC at 3.2 ug/ml after 18 hrs (reference value: 512 ug/ml). Conditions: PAO1, 18 h.
The subject of test [20] is Escherichia coli. Put plainly: Potentiation of erythromycin-induced antibacterial activity against Escherichia coli AG100 assessed as erythromycin MIC at 0.4 ug/ml after 18 hrs (reference value: 512 ug/ml). Conditions: AG100, 18 h.
Test [21] relates to Pseudomonas aeruginosa. Put plainly: Potentiation of cefepime-induced antibacterial activity against Pseudomonas aeruginosa PAO1 assessed as cefepime MIC at 3.2 ug/ml after 18 hrs (reference value: 8 ug/ml). The settings on record: PAO1, 18 h.
The test system of test [22] is Pseudomonas aeruginosa. Put plainly: Potentiation of erythromycin-induced antibacterial activity against Pseudomonas aeruginosa PAO1 assessed as erythromycin MIC at 3.2 ug/ml after 18 hrs (reference value: 512 ug/ml). Conditions: PAO1, 18 h.
Test [23] deals with Klebsiella aerogenes. Briefly: Potentiation of erythromycin-induced antibacterial activity against Enterobacter aerogenes ATCC 13048 assessed as erythromycin MIC at 1.6 ug/ml after 18 hrs (reference value: 512 ug/ml). Conditions: ATCC 13048, 18 h.
For test [24], the system named is Escherichia coli. Put plainly: Potentiation of ciprofloxacin-induced antibacterial activity against Escherichia coli AG100 assessed as ciprofloxacin MIC at 0.4 ug/ml after 18 hrs (reference value: 0.25 ug/ml). Conditions: AG100, 18 h.
Test [25] has as its system Pseudomonas aeruginosa. Put plainly: Potentiation of ciprofloxacin-induced antibacterial activity against Pseudomonas aeruginosa PAO1 assessed as ciprofloxacin MIC at 3.2 ug/ml after 18 hrs (reference value: 16 ug/ml). Conditions: PAO1, 18 h.
Test [26] relates to Klebsiella aerogenes. Briefly: Potentiation of doxycycline-induced antibacterial activity against Enterobacter aerogenes EA289 assessed as doxycycline MIC at 2 ug/ml after 24 hrs by broth microdilution method (reference value: 40 ug/ml). The settings on record: EA289, 24 h.
For test [27], the system named is Pseudomonas aeruginosa. Briefly: Potentiation of doxycycline-induced antibacterial activity against Pseudomonas aeruginosa PAO1 assessed as doxycycline MIC at 2 ug/ml after 24 hrs by broth microdilution method (reference value: 16 ug/ml). Conditions: PAO1, 24 h.

What is called MIC is the lowest concentration that inhibits growth of the organism.

`CC(C)=C/C=C\C(C)=C/CC/C(C)=C/CNCCCNCCCCNCCCN.Cl.Cl.Cl.Cl`: in the test on Pseudomonas aeruginosa [1], the “fractional inhibitory concentration index (FICI)” value was 0.09. In addition, the MIC in the test with Pseudomonas aeruginosa [2] came out at 2 µg/mL.
As to `COc1ccccc1CNCCCCCCNCCCCCCCCNCCCCCCNCc1ccccc1OC` [METHOCTRAMINE], the MIC in the test on Escherichia coli [3] and in the test on Escherichia coli [4] was 16 µg/mL each time.
`Cl.Cl.Cl.Cl.NCCCNCCCCNCCCNC(=O)Cc1cccc2ccccc12`: the figures for the MIC with Escherichia coli [5] and with Escherichia coli [6] were 1 µg/mL and 4 µg/mL, respectively.
As for `Cl.Cl.Cl.NCCCNCCCNC1CCCCCCCCCCCCCC1`, the MIC in the test with Pseudomonas aeruginosa [7], with Klebsiella pneumoniae and in the test on Klebsiella aerogenes [8] was 2 µg/mL each time.
Take `Cl.Cl.Cl.NCCCCNCCCCNC1CCCCCCCCCCCCCC1`: the MIC with Klebsiella aerogenes [9], in the test with Pseudomonas aeruginosa [10] and in the test with Klebsiella pneumoniae was 2 µg/mL each time.
As to `CC(C)[C@@H](CC[C@@H](C)[C@H]1CC[C@H]2[C@@H]3[C@H](O)C[C@H]4C[C@@H](NCCCNCCCCN)CC[C@]4(C)[C@H]3CC[C@]12C)OS(=O)(=O)O` [SQUALAMINE], the MIC was 4 µg/mL in the test with Pseudomonas aeruginosa [11]; 0.015 µg/mL in the test on Klebsiella aerogenes [12]; 0.25 µg/mL with Klebsiella aerogenes [13]; 0.5 µg/mL in the test with Escherichia coli [14]; 0.03 µg/mL in the test on Klebsiella aerogenes [15]; 0.125 µg/mL in the test on Escherichia coli [16]. Further, the MIC with Escherichia coli [17] was determined as 0.06 µg/mL; in the test on Klebsiella aerogenes [18], 0.25 µg/mL; with Pseudomonas aeruginosa [19], 16 µg/mL; in the test on Escherichia coli [20], 256 µg/mL; in the test with Pseudomonas aeruginosa [21] it was 1 µg/mL; with Pseudomonas aeruginosa [22], 256 µg/mL. Moreover, the values for the MIC in the test on Klebsiella aerogenes [23], in the test on Escherichia coli [24] and in the test on Pseudomonas aeruginosa [25] were 128 µg/mL, 0.03 µg/mL and less than 1 µg/mL, respectively.
With `CC(C)OC(=O)CC[C@@H](C)[C@H]1CC[C@H]2[C@@H]3CC[C@H]4C[C@@H](NCCCNCCCNCCCCNCCCN)CC[C@]4(C)[C@H]3C[C@H](O)[C@]12C`, the values for the MIC in the test with Klebsiella aerogenes [26] and in the test on Pseudomonas aeruginosa [27] were 0.5 µg/mL and 2 µg/mL, respectively.

Values taken from ChEMBL document CHEMBL4376806, “Antibiotic Adjuvants: Make Antibiotics Great Again!” (2019).
